Reference: patent publication US10787425B2, “Thiazolidinedione derivative and use thereof” (INDUSTRY-ACADEMIC COOPERATION FOUNDATION CHOSUN UNIVERSITY, priority 2016, dated 2020)

Legend:
A549 cells = assay: Measurement of PGE2 concentration in A549 cell medium (ELISA); format: cell-based, human; settings: for Increment %: PGE2 concentration versus PBS control, 5 μM, 12 hours; for PGE2 concentration: inhibitor 5 μM, medium collected after 12 hours, ELISA
Summary of the method: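 A549 cells in RPMI 1640 with 8% FBS, seeded at 5×10^5 cells/well and grown 24 h at 37° C, 5% CO2; at ~80% confluence treated with 15-PGDH inhibitor at 5 μM in PBS (PBS-only negative control). After 12 h, PGE2 in the medium was measured by ELISA against a standard curve.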

15-PGDH = 15-PGDH (Homo sapiens (Human), UniProt P15428); assay: 15-PGDH inhibitory activity (NADH at 340 nm); format: biochemical; settings: concentration inhibiting 50% of 15-PGDH activity; purified 15-PGDH, 21 μM PGE2, 0.25 mM NAD+
Chain of 15-PGDH (P15428 whole entry): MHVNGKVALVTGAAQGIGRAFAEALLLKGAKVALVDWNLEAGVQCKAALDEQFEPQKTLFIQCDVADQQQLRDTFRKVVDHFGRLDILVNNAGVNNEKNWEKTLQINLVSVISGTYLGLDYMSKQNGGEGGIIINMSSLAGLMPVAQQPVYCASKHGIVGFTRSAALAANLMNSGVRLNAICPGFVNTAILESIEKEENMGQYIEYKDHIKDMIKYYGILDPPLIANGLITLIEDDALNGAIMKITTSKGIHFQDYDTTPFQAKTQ
Summary of the method: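 GST-purified human 15-PGDH (E. coli BL-21 LysS, 10 μg) with 21 μM PGE2 and 0.25 mM NAD+ in 50 mM Tris-HCl pH 7.5, 0.1 mM DTT. Compound tested at 0.0001–64 μM; NADH formation read by absorbance at 340 nm against a standard curve.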

Structure (SMILES) | Increment % (A549 cells) [%] | PGE2 concentration (A549 cells) [pg/mL] | IC50 (15-PGDH) [nM]
O=C(Cc1ccccc1)Oc1ccc(/C=C2\SC(=O)NC2=O)cc1 [Compound 72, (Z)-4-((2,4-dioxothiazolidin-5-ylidene)methyl)phenyl 2-phenylacetate] | −18.07 | 105.832 | 108
O=C(CCc1ccccc1)Oc1ccc(/C=C2\SC(=O)NC2=O)cc1 [Compound 73, (Z)-4-((2,4-dioxothiazolidin-5-ylidene)methyl)phenyl 3-phenylpropanoate] | 102.39 | 261.4347 | 54.4
O=C(CCCc1ccccc1)Oc1ccc(/C=C2\SC(=O)NC2=O)cc1 [Compound 74, (Z)-4-((2,4-dioxothiazolidin-5-ylidene)methyl)phenyl 4-phenylbutanoate] | 27.71 | 164.9677 | 50.7
O=C(CCCCc1ccccc1)Oc1ccc(/C=C2\SC(=O)NC2=O)cc1 [Compound 75, (Z)-4-((2,4-dioxothiazolidin-5-ylidene)methyl)phenyl 5-phenylpentanoate] | 23.31 | 159.2841 | 92.1
O=C1NC(=O)/C(=C/c2cccc(OC(=O)C3CC3)c2Cl)S1 [Compound 76, (Z)-2-chloro-3-((2,4-dioxothiazolidin-5-ylidene)methyl)phenyl cyclopropanecarboxylate] | 3.34 | 123.6726 | 542
O=C1NC(=O)/C(=C/c2cccc(OC(=O)C3CCC3)c2Cl)S1 [Compound 77, (Z)-2-chloro-3-((2,4-dioxothiazolidin-5-ylidene)methyl)phenyl cyclobutanecarboxylate] | 56.54 | 187.3399 | 482
O=C1NC(=O)/C(=C/c2cccc(OC(=O)C3CCCC3)c2Cl)S1 [Compound 78, (Z)-2-chloro-3-((2,4-dioxothiazolidin-5-ylidene)methyl)phenyl cyclopentanecarboxylate] | −67.32 | 39.11 | 56.2
O=C(CC1CCCC1)Oc1cccc(/C=C2\SC(=O)NC2=O)c1Cl [Compound 79, (Z)-2-chloro-3-((2,4-dioxothiazolidin-5-ylidene)methyl)phenyl 2-cyclopentylacetate] | −2.34 | 116.875 | 42.8
O=C(CCC1CCCC1)Oc1cccc(/C=C2\SC(=O)NC2=O)c1Cl [Compound 80, (Z)-2-chloro-3-((2,4-dioxothiazolidin-5-ylidene)methyl)phenyl 3-cyclopentylpropanoate] | 97.99 | 236.9453 | 34.7
O=C(CC1CCCCC1)Oc1cccc(/C=C2\SC(=O)NC2=O)c1Cl [Compound 82, (Z)-2-chloro-3-((2,4-dioxothiazolidin-5-ylidene)methyl)phenyl 2-cyclohexylacetate] | 189.97 | 610.1325 | 32.7
O=C(CCCC1CCCCC1)Oc1cccc(/C=C2\SC(=O)NC2=O)c1Cl [Compound 84, (Z)-2-chloro-3-((2,4-dioxothiazolidin-5-ylidene)methyl)phenyl 4-cyclohexylbutanoate] | 16.67 | 245.488 | 22.5
O=C(CCCCC1CCCCC1)Oc1cccc(/C=C2\SC(=O)NC2=O)c1Cl [Compound 85, (Z)-2-chloro-3-((2,4-dioxothiazolidin-5-ylidene)methyl)phenyl 5-cyclohexylpentanoate] | −7.79 | 194.0212 | 25.6
O=C(O)c1ccccc1.O=C1NC(=O)/C(=C/c2cccc(OC(=O)c3ccccc3)c2Cl)S1 [Compound 86, (Z)-2-chloro-3-((2,4-dioxothiazolidin-5-ylidene)methyl)phenyl benzoate] | −12.12 | 184.9103 | 54.1
